What was measured:
[1] = biological target: T1, Recombinant human NK3 (hNK3) receptor (Homo sapiens, UniProt P29371); assay: NK3 receptor binding, [3H]SR142801 displacement, membrane preparations; conditions: second value of the cell NK1/NK3; read-out: pKi NK3 (converted)
T1 construct: expressed in transfected cells
T1 sequence (P29371 1-465): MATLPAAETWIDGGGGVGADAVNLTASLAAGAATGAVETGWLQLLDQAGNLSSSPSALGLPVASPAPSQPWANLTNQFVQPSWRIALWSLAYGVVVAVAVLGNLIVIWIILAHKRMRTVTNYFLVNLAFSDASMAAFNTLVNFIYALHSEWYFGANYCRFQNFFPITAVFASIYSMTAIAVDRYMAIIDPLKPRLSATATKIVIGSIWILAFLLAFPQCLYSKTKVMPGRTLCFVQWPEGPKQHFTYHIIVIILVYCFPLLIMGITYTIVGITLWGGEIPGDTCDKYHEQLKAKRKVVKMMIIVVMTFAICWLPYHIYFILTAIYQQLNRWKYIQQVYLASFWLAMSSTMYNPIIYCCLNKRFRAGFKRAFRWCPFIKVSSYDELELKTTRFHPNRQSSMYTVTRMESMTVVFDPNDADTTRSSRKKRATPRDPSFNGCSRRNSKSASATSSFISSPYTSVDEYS
Outline: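 Room-temperature, 90-min filtration binding assay using about 2.5 μg recombinant receptor membranes per well; separation on polyethyleneimine-treated glass-fibre (GF/C) filters and liquid scintillation read-out, with 10 μM SB222200 for nonspecific binding.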

human NK1 receptor = human NK1 receptor (Homo sapiens, UniProt P25103); assay: NK1 receptor binding, [3H]substance P displacement, CHO cell membranes; conditions: first value of the cell NK1/NK3; read-out: pKi NK1 (converted)
Sequence of human NK1 receptor (P25103 whole entry): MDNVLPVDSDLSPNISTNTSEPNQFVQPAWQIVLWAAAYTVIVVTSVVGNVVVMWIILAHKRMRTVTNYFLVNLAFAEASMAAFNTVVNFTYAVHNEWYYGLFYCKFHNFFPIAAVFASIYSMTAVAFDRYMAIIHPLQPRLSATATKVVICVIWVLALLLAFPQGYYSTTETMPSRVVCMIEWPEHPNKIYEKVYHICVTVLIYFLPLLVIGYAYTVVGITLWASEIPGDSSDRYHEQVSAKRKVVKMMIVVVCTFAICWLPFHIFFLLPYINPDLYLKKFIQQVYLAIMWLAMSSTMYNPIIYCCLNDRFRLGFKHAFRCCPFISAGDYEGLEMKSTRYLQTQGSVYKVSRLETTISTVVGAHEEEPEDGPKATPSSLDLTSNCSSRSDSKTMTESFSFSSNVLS

Row | Ki [1] | Ki (human NK1 receptor) | SMILES
1 | 2.24 nM | 3.09 nM | CN(C(=O)C(C)(C)c1cc(C(F)(F)F)cc(C(F)(F)F)c1)c1cnc(N2CCC[C@H]2CO)cc1-c1ccccc1F [Example 282, (S)-2-(3,5-Bis-trifluoromethyl-phenyl)-N-[4-(2-fluoro-phenyl)-6-(2-hydroxymethyl-pyrrolidin-1-yl)-pyridin-3-yl]-N-methyl-isobutyramide]
2 | 1.48 nM | 2.82 nM | CN(C(=O)C(C)(C)c1cc(C(F)(F)F)cc(C(F)(F)F)c1)c1cnc(N2CCC[C@H]2CO)cc1-c1ccc(Cl)cc1Cl [Example 283, (S)-2-(3,5-Bis-trifluoromethyl-phenyl)-N-[4-(2,4-dichloro-phenyl)-6-(2-hydroxymethyl-pyrrolidin-1-yl)-pyridin-3-yl]-N-methyl-isobutyramide]
3 | 1.45 nM | 1.48 nM | CN(C(=O)C(C)(C)c1cc(C(F)(F)F)cc(C(F)(F)F)c1)c1cnc(N2CCC[C@H]2CO)cc1-c1cc(Cl)ccc1Cl [Example 284, (S)-2-(3,5-Bis-trifluoromethyl-phenyl)-N-[4-(2,5-dichloro-phenyl)-6-(2-hydroxymethyl-pyrrolidin-1-yl)-pyridin-3-yl]-N-methyl-isobutyramide]
4 | 1.86 nM | 1.58 nM | CN(C(=O)C(C)(C)c1cc(C(F)(F)F)cc(C(F)(F)F)c1)c1cnc(N2CCC[C@H]2CO)cc1-c1cccc(Cl)c1Cl [Example 285, (S)-2-(3,5-Bis-trifluoromethyl-phenyl)-N-[4-(2,3-dichloro-phenyl)-6-(2-hydroxymethyl-pyrrolidin-1-yl)-pyridin-3-yl]-N-methyl-isobutyramide]
5 | 3.72 nM | 1.35 nM | CN(C(=O)C(C)(C)c1cc(C(F)(F)F)cc(C(F)(F)F)c1)c1cnc(N2CCC[C@H]2CO)cc1-c1ccc(Cl)c(Cl)c1 [Example 286, (S)-2-(3,5-Bis-trifluoromethyl-phenyl)-N-[4-(3,4-dichloro-phenyl)-6-(2-hydroxymethyl-pyrrolidin-1-yl)-pyridin-3-yl]-N-methyl-isobutyramide]
6 | 7.41 nM | 6.31 nM | CN(C(=O)C(C)(C)c1cc(C(F)(F)F)cc(C(F)(F)F)c1)c1cnc(N2CCC[C@H]2CO)cc1-c1ccc(Cl)cc1 [Example 287, (S)-2-(3,5-Bis-trifluoromethyl-phenyl)-N-[4-(4-chloro-phenyl)-6-(2-hydroxymethyl-pyrrolidin-1-yl)-pyridin-3-yl]-N-methyl-isobutyramide]
7 | 2.51 nM | 2.63 nM | CN(C(=O)C(C)(C)c1cc(C(F)(F)F)cc(C(F)(F)F)c1)c1cnc(N2CCC[C@H]2CO)cc1-c1ccc(F)cc1 [Example 288, (S)-2-(3,5-Bis-trifluoromethyl-phenyl)-N-[4-(4-fluoro-phenyl)-6-(2-hydroxymethyl-pyrrolidin-1-yl)-pyridin-3-yl]-N-methyl-isobutyramide]
8 | 5.01 nM | 3.02 nM | CN(C(=O)C(C)(C)c1cc(C(F)(F)F)cc(C(F)(F)F)c1)c1cnc(N2CCC[C@H]2CO)cc1-c1ccccc1 [Example 289, (S)-2-(3,5-Bis-trifluoromethyl-phenyl)-N-[6-(2-hydroxymethyl-pyrrolidin-1-yl)-4-phenyl-pyridin-3-yl]-N-methyl-isobutyramide]
9 | 1.78 nM | 1.45 nM | Cc1ncccc1-c1cc(N2CCC[C@H]2CO)ncc1N(C)C(=O)C(C)(C)c1cc(C(F)(F)F)cc(C(F)(F)F)c1 [Example 290, (S)-2-(3,5-Bis-trifluoromethyl-phenyl)-N-[6′-(2-hydroxymethyl-pyrrolidin-1-yl)-2-methyl-[3,4′]bipyridinyl-3′-yl]-N-methyl-isobutyramide]
10 | 7.76 nM | 3.31 nM | Cc1ncccc1-c1cc(N(CCO)CCO)ncc1N(C)C(=O)C(C)(C)c1cc(C(F)(F)F)cc(C(F)(F)F)c1 [Example 291, N-{6′-[Bis-(2-hydroxy-ethyl)-amino]-2-methyl-[3,4′]bipyridinyl-3′-yl}-2-(3,5-bis-trifluoromethyl-phenyl)-N-methyl-isobutyramide]
11 | 0.776 nM | 3.63 nM | Cc1ccncc1-c1cc(N2CCC[C@H]2CO)ncc1N(C)C(=O)C(C)(C)c1cc(C(F)(F)F)cc(C(F)(F)F)c1 [Example 292, (S)-2-(3,5-Bis-trifluoromethyl-phenyl)-N-[6′-(2-hydroxymethyl-pyrrolidin-1-yl)-4-methyl-[3,4′]bipyridinyl-3′-yl]-N-methyl-isobutyramide]
12 | 1.62 nM | 3.8 nM | Cc1ccncc1-c1cc(N(CCO)CCO)ncc1N(C)C(=O)C(C)(C)c1cc(C(F)(F)F)cc(C(F)(F)F)c1 [Example 293, N-{6′-[Bis-(2-hydroxy-ethyl)-amino]-4-methyl-[3,4′]bipyridinyl-3′-yl}-2-(3,5-bis-trifluoromethyl-phenyl)-N-methyl-isobutyramide]

Second part, the molecule before the results:

Row | SMILES | Ki [1] | Ki (human NK1 receptor)
13 | CN(C(=O)C(C)(C)c1cc(C(F)(F)F)cc(C(F)(F)F)c1)c1cnc(N2CC[C@H](O)[C@H]2CO)cc1-c1ccc(F)cc1Cl [Example 272, (2R,3S)-2-(3,5-Bis-trifluoromethyl-phenyl)-N-[4-(2-chloro-4-fluoro-phenyl)-6-(3-hydroxy-2-hydroxymethyl-pyrrolidin-1-yl)-pyridin-3-yl]-N-methyl-isobutyramide] | 1.1 nM | 2 nM
14 | CN(C(=O)C(C)(C)c1cc(C(F)(F)F)cc(C(F)(F)F)c1)c1cnc(N2CC[C@H](O)[C@H]2CO)cc1-c1ccc(F)cc1C=O [Example 273, (2R,3S)-2-(3,5-Bis-trifluoromethyl-phenyl)-N-[4-(4-fluoro-2-formyl-phenyl)-6-(3-hydroxy-2-hydroxymethyl-pyrrolidin-1-yl)-pyridin-3-yl]-N-methyl-isobutyramide] | 1.55 nM | 1.45 nM
15 | CN(C(=O)C(C)(C)c1cc(C(F)(F)F)cc(C(F)(F)F)c1)c1cnc(N2CC[C@H](O)[C@H]2CO)cc1-c1ccc(F)cc1CO [Example 274, (2R,3S)-2-(3,5-Bis-trifluoromethyl-phenyl)-N-[4-(4-fluoro-2-hydroxymethyl-phenyl)-6-(3-hydroxy-2-hydroxymethyl-pyrrolidin-1-yl)-pyridin-3-yl]-N-methyl-isobutyramide] | 1.51 nM | 1.29 nM
16 | Cc1c(F)cccc1-c1cc(N2CC[C@H](O)[C@H]2CO)ncc1N(C)C(=O)C(C)(C)c1cc(C(F)(F)F)cc(C(F)(F)F)c1 [Example 275, (2R,3S)-2-(3,5-Bis-trifluoromethyl-phenyl)-N-[4-(3-fluoro-2-methyl-phenyl)-6-(3-hydroxy-2-hydroxymethyl-pyrrolidin-1-yl)-pyridin-3-yl]-N-methyl-isobutyramide] | 0.575 nM | 1.48 nM
17 | Cc1ccc(F)cc1-c1cc(N2CC[C@H](O)[C@H]2CO)ncc1N(C)C(=O)C(C)(C)c1cc(C(F)(F)F)cc(C(F)(F)F)c1 [Example 276, (2R,3S)-2-(3,5-Bis-trifluoromethyl-phenyl)-N-[4-(5-fluoro-2-methyl-phenyl)-6-(3-hydroxy-2-hydroxymethyl-pyrrolidin-1-yl)-pyridin-3-yl]-N-methyl-isobutyramide] | 1.38 nM | 1.45 nM
18 | CN(C(=O)C(C)(C)c1cc(C(F)(F)F)cc(C(F)(F)F)c1)c1cnc(N2CC[C@H](O)[C@H]2CO)cc1-c1cc(F)ccc1F [Example 277, (2R,3S)-2-(3,5-Bis-trifluoromethyl-phenyl)-N-[4-(2,5-difluoro-phenyl)-6-(3-hydroxy-2-hydroxymethyl-pyrrolidin-1-yl)-pyridin-3-yl]-N-methyl-isobutyramide] | 2.45 nM | 1.48 nM
19 | Cc1ncccc1-c1cc(N2CC[C@H](O)[C@H]2CO)ncc1N(C)C(=O)C(C)(C)c1cc(C(F)(F)F)cc(C(F)(F)F)c1 [Example 278, (2R,3S)-2-(3,5-Bis-trifluoromethyl-phenyl)-N-[6′-(3-hydroxy-2-hydroxymethyl-pyrrolidin-1-yl)-2-methyl-[3,4′]bipyridinyl-3′-yl]-N-methyl-isobutyramide] | 2.69 nM | 0.813 nM
20 | Cc1ccccc1-c1cc(N2CCC[C@H]2CO)ncc1N(C)C(=O)C(C)(C)c1cc(C(F)(F)F)cc(C(F)(F)F)c1 [Example 279, (S)-2-(3,5-Bis-trifluoromethyl-phenyl)-N-[6-(2-hydroxymethyl-pyrrolidin-1-yl)-4-o-tolyl-pyridin-3-yl]-N-methyl-isobutyramide] | 1.17 nM | 2.82 nM
21 | COc1ccccc1-c1cc(N2CCC[C@H]2CO)ncc1N(C)C(=O)C(C)(C)c1cc(C(F)(F)F)cc(C(F)(F)F)c1 [Example 280, (S)-2-(3,5-Bis-trifluoromethyl-phenyl)-N-[6-(2-hydroxymethyl-pyrrolidin-1-yl)-4-(2-methoxy-phenyl)-pyridin-3-yl]-N-methyl-isobutyramide] | 1.86 nM | 1.82 nM
22 | CN(C(=O)C(C)(C)c1cc(C(F)(F)F)cc(C(F)(F)F)c1)c1cnc(N2CCC[C@H]2CO)cc1-c1ccccc1Br [Example 281, (S)-2-(3,5-Bis-trifluoromethyl-phenyl)-N-[4-(2-bromo-phenyl)-6-(2-hydroxymethyl-pyrrolidin-1-yl)-pyridin-3-yl]-N-methyl-isobutyramide] | 1.82 nM | 3.47 nM
